Experiments:
[1] = target: T1, aggregated tau in 3T6 cells expressing htau40 (IPTG-inducible) and truncated tau (Homo sapiens, UniProt P10636); experiment: Tissue culture cell assay: uptake and labelling of aggregated tau; assay type: cell-based, mouse; settings: for binding to aggregated tau within cells, fluorescence microscopy: induced cells
T1 construct: express both full-length human tau protein (htau40); truncated tau (295-390, dGA); expressed in transfected cells; host or cells: murine 3T6 fibroblasts; htau40 in pOPRSVI (IPTG-inducible), dGA in pcDNA3.1 (constitutive)
Method: The aggregated tau was prepared in cell lines as described in WO02/055720. In essence, fibroblast cells (3T6) express full-length tau (“T40”) under control of an inducible promotor, and low constitutive levels of the PHF-core tau fragment (12 kD fragment). Then T40 expression is induced, it undergoes aggregation-dependent truncation within the cell, N-terminally at ˜αα295 and C-terminally at ˜αα390, thereby producing higher levels of the 12 kD PHF-core domain fragment.
The tissue culture assay uses 3T6 mouse cells engineered to express both full-length human tau protein (htau40) under the control of an inducible promoter (pOPRSVI), and to express low levels of truncated tau (295-390, dGA) under the control of a constitutive promoter (pcDNA3.1). Expression of large quantities of htau40 is induced by the addition of isopropyl β-D-1-thiogalactopyranoside (IPTG; 10-50 μM), which in turn leads to the production of additional truncated tau by a process in which aggregation and processing of the full-length tau occurs in the presence of dGA tau which acts as template. The aggregation of tau in this assay is depicted in FIG. 1.
Murine 3T6 fibroblast cells were grown to ˜80% confluency in a 10-cm dish, before splitting into 2×24 well plates, and allowed to grow for a further 24 hrs when IPTG was added. After overnight incubation, the medium was removed and the cells were washed with PBS.
A similar experiment was performed with cells seeded on to cover slips in a 24-well plate. After 24 hrs, the cells were incubated with ligand for 20 hrs in the presence or absence of IPTG (100 μM) i.e. induced or uninduced.

[2] = target: T2, aggregated tau in brain sections of line 66 mice (full-length human tau, P301S/G335D) (Homo sapiens, UniProt P10636, G652D/P618S); experiment: Ligand staining of paraffin-embedded brain sections; design: species or system mouse
T2 construct: transgenic mice expressing full-length human tau; from tissue; host or cells: fixed brain sections of transgenic line 66 mice (paraffin-embedded or frozen)
Description: The binding of ligands to aggregated tau in tissue sections or cells containing such aggregates can also be used to test whether such compounds can (i) enter cells, and (ii) bind to aggregated tau. In addition, it is a suitable means to test fluorescent ligands that cannot be tested in the fluorescent competition binding assay.
Brain tissue sections were used from transgenic mice expressing full-length human tau, that contained a double mutation P301S/G335D (line 66 mouse). Aggregated tau pathology accumulates in neurons in these animals. Fixed tissue was used either after embedding in paraffin or after freezing in the presence of cryoprotectant.
Sections from the brains of mice expressing full-length tau, that contain a double mutation P301S/G335D, associated with frontotemporal […] were cut 5 μm thick. Sections were dewaxed and rehydrated into water. Inherent fluorescence was quenched with sodium permanganate followed by sodium borohydride. Primulin or SK2033-30 was added in 50% ethanol. In a second experiment, SK2033-30 was added in 50% ethanol containing 10% DMSO. Sections were compared with those stained by standard immunohistochemistry using mAb 7/51, an antibody recognising truncated tau repeat domain (Novak et al. (1993); Wischik et al. (1996)).

T2 sequence (P10636 1-441 isoform P10636-8 P301S/G335D): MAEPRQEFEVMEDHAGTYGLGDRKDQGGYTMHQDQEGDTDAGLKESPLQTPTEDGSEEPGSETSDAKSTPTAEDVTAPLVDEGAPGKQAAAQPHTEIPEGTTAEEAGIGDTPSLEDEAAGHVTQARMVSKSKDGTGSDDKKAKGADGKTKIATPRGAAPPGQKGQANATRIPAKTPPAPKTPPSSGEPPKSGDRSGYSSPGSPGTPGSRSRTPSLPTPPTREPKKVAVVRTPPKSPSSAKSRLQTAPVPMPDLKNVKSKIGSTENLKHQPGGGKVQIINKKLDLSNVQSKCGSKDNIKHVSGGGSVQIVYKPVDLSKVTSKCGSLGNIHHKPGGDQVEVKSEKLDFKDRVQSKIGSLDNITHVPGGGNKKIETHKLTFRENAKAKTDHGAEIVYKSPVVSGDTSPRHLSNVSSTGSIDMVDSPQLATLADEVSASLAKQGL

Row | Compound | binding to aggregated tau within cells, fluorescence microscopy [1] | staining pattern in paraffin-embedded line 66 mouse brain section ([2]; ligand added in 50% ethanol containing 10% DMSO) | uptake/staining in paraffin-embedded line 66 mouse brain section ([2]; ligand added in 50% ethanol, compared with primulin or antibody immunostaining) | uptake and labelling of aggregated tau in induced cells ([1]; IPTG-induced cells)
1 | Oc1ccc(/N=N/c2ccc(-c3nc4ccc(O)cc4s3)cc2)c(C(F)(F)F)c1 [LS-T213, 4-{(E)-[4-(6-Hydroxy-1,3-benzothiazol-2-yl)phenyl]diazenyl}-3-(trifluoromethyl)phenol] | selective binding | – | – | –
2 | Cc1ccc2nc(-c3ccc(/C=C/c4ccc(N(C)C)cc4)cc3)sc2c1 [SK2033-30, 2-{4-[2-(4-Dimethylaminophenyl)-vinyl]-phenyl}-6-methylbenzothiazole] | selective binding | showed a staining pattern similar to that observed with primulin or antibody | little evidence for its uptake into cells | demonstrated
